Experiments:
[1] = target: T1, Calcitonin gene-related peptide type 1 receptor (Homo sapiens, UniProt O60894+Q16602); assay: Displacement of [125I]-hCGRP from CGRP receptor in human SK-N-MC cell membranes after 2 hrs by scintillation counting analysis
[2] = target: T1, Calcitonin gene-related peptide type 1 receptor; assay: Antagonist activity at CGRP receptor in human SK-N-MC cells assessed as inhibition of alpha-CGRP-induced c-AMP formation after 15 mins by radioimmunoassay; format: cell-based

T1 sequence (Q16602 whole entry, one chain of several): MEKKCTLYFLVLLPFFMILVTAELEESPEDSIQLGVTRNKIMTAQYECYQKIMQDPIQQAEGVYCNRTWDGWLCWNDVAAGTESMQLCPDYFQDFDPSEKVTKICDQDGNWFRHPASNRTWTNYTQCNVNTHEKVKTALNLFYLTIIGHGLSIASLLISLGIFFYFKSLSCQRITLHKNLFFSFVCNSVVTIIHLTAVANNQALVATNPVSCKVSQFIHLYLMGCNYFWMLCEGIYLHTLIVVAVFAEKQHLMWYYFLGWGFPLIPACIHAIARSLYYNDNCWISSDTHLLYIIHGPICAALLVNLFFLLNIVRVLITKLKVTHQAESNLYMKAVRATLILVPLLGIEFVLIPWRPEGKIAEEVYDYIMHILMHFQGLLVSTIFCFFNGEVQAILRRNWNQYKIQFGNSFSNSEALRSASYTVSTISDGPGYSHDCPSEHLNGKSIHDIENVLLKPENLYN

Structure (SMILES)	IC50 [1]	EC50 [2]
NCCCC[C@H](NC(=O)[C@@H](Cc1cc2ccccc2s1)NC(=O)N1CCC(N2Cc3ccccc3NC2=O)CC1)C(=O)N1CCN(c2ccncc2)CC1	25 nM	96 nM
NCCCC[C@H](NC(=O)[C@@H](Cc1cc2ccccc2s1)NC(=O)N1CCC(n2c(=O)[nH]c3ccccc3c2=O)CC1)C(=O)N1CCN(c2ccncc2)CC1	2.7 nM	100 nM
NCCCC[C@H](NC(=O)[C@@H](Cc1cc(Br)c(O)c(Br)c1)NC(=O)N1CCC(n2c(=O)[nH]c3ccccc3c2=O)CC1)C(=O)N1CCN(c2ccncc2)CC1		0.15 nM
